Test results from EP2815749A1, “Solid form of 4-amino-2-(2,6-dioxopiperidine-3-yl)isoindoline-1,3-dione having specified X-ray diffraction pattern” (IP Gesellschaft für Management mbH, priority 2013, dated 2014).
Where a name gives a salt, the structure may show the parent alone. Read-outs that look alike come from different tables or passages of the source.

Experiments:
[1] = Equilibration and form conversion experiments of Compound of formula (V); assay type: physicochemical
[2] = Desolvation of solvate forms of Compound (VII); assay type: physicochemical
Experimental: Polymorph screening: A polymorph screen was conducted in the methylethyl ketone (MEK)/ water solvent systems, as well as in the acetonitrile (ACN), ACN/water and isopropyl acetate solvent systems. Polymorph screening techniques included crash cooling, solvent evaporation, antisolvent addition, and slurry experiments. Slurry experiments were performed on an IKA RCT hot plate with magnetic stirring set to 710 rpm. The temperature was controlled with an IKA ETS-D5 thermocouple. Solvent volumes were measured and transferred with Gibson Pipetteman volumetric pipettes. New forms that were identified as solvates were subjected to desolvation under two potential conditions: (1) drying in a vacuum oven at 40°C and (2) sitting undisturbed under ambient conditions in a fume hood. Physical characterization of all forms proceeded by X-ray powder diffraction (XRPD) and thermogravimetric analysis (TGA).
Experiment 6: Desolvation: New forms of Compound (VII) obtained in the polymorph screen suspected of being solvates were subjected to further form investigation through attempted desolvation. Forms D, E, F, G, H, I, J, K, L and Hydrate A were left to stand open to the atmosphere under ambient conditions and or were placed in a vacuum oven. […] Forms D and K produced new crystalline XRPD patterns following desolvation. […] In some embodiments, Form R ({drug7p}) is characterized by one or more peaks in an XRPD spectrum selected from the peaks listed in Table 20. Form R ({drug7p}) Peak List:
In some embodiments, Form S ({drug7q}) is characterized by one or more peaks in an XRPDspectrum selected from the peaks listed in Table 21.

[3] = Salt screening and crystalline salt characterization of Compound (VI); settings: for Hygroscopicity: ambient temperature and relative humidity conditions
Experimental: The screening examined acid type, acid level (equivalents), and/or type of crystallization solvent. Each plate contained 96 well plates (8 rows of 12 columns per plate). […] The solution (12.5 mL) was transferred to 24 vials. To each vial was added 0.25 M EtOH stock solutions of the following acids:
The content of each vial was transferred to 12 crystallization wells and evaporated to dryness. Upon evaporation, each well was charged with 100 µl of solvent using a robotic liquid handler. The following crystallization solvents were tested: methyl isobutyl ketone (MIBK), ethyl acetate, toluene, THF, acetonitrile, acetone, isopropanol, ethanol, methanol, 1,2-dichloroethylene, isopropanol/water (50:50), and water. Next, the plates were sealed with Teflon septa and subjected to temperature cycling. […] After the heating/cooling cycle, the contents of the wells were characterized by birefringent imaging. Perceived crystalline hits were further characterized by PXRD analysis.

Question: With `NC1(C(=O)N[C@@H](CCO)c2ccc(Cl)cc2)CCN(c2ncnc3[nH]ccc23)CC1` [Form B, (S)-4-amino-N-(1-(4-chlorophenyl)-3-hydroxypropyl)-1-(7H-pyrrolo[2,3-d]pyrimidin-4-yl)piperidine-4-carboxamide] as the compound, how does the “XRPD Result after form conversion experiment” value (shortened to “XRPD Result”) ([1]; Heated to 220 °C for 4 hours) read?
Answer: Form A

Question: Which “XRPD Result” value ([1]; Heated to 220 °C for 4 hours) does the source give for `NC1(C(=O)N[C@@H](CCO)c2ccc(Cl)cc2)CCN(c2ncnc3[nH]ccc23)CC1` [Form C, (S)-4-amino-N-(1-(4-chlorophenyl)-3-hydroxypropyl)-1-(7H-pyrrolo[2,3-d]pyrimidin-4-yl)piperidine-4-carboxamide] here?
Answer: Form A+C

Question: What about the “XRPD Result” value ([1]; Slurry in NMP/Acetone/water at ambient for 5 days) of the same compound?
Answer: Form A+C

Question: What about the “XRPD Result” value ([1]; Slurry in NMP/Acetone/water at ambient for 10 days) of the same compound?
Answer: Form A+C

Question: For `CC(C)(C)c1cc(C(C)(C)C)c(NC(=O)c2c[nH]c3ccccc3c2=O)cc1O` [Form D ({drug7b}), N-[2,4-bis(1,1-dimethylethyl)-5-hydroxyphenyl]-1,4-dihydro-4-oxoquinoline-3-carboxamide], which “XRPD pattern after attempted desolvation” value ([2]; ambient conditions and vacuum oven for approximately 1 month) is on record?
Answer: converted to a new crystalline form of Compound (VII) designated Form R

Question: Which “XRPD pattern after attempted desolvation” value ([2]; standing under ambient conditions and sitting in the vacuum oven) does the source give for `CC(C)(C)c1cc(C(C)(C)C)c(NC(=O)c2c[nH]c3ccccc3c2=O)cc1O` [Form E ({drug7c}), N-[2,4-bis(1,1-dimethylethyl)-5-hydroxyphenyl]-1,4-dihydro-4-oxoquinoline-3-carboxamide] here?
Answer: same XRPD patterns

Question: With `CC(C)(C)c1cc(C(C)(C)C)c(NC(=O)c2c[nH]c3ccccc3c2=O)cc1O` [Form G ({drug7e}), N-[2,4-bis(1,1-dimethylethyl)-5-hydroxyphenyl]-1,4-dihydro-4-oxoquinoline-3-carboxamide] as the compound, how does the “XRPD pattern after attempted desolvation” value ([2]; vacuum oven for one month) read?
Answer: became x-ray amorphous

Question: With `CC(C)(C)c1cc(C(C)(C)C)c(NC(=O)c2c[nH]c3ccccc3c2=O)cc1O` [Form H ({drug7f}), N-[2,4-bis(1,1-dimethylethyl)-5-hydroxyphenyl]-1,4-dihydro-4-oxoquinoline-3-carboxamide] as the compound, how does the “XRPD pattern after attempted desolvation” value ([2]; ambient conditions for one month) read?
Answer: same Form H

Question: What about the “XRPD pattern after attempted desolvation” value ([2]; vacuum oven for one month) of the same compound?
Answer: converted to a semi-crystalline form

Question: For `CC(C)(C)c1cc(C(C)(C)C)c(NC(=O)c2c[nH]c3ccccc3c2=O)cc1O` [Form K ({drug7i}), N-[2,4-bis(1,1-dimethylethyl)-5-hydroxyphenyl]-1,4-dihydro-4-oxoquinoline-3-carboxamide], which “XRPD pattern after attempted desolvation” value ([2]; ambient conditions and vacuum oven for 2 months) is on record?
Answer: converted to a new crystalline form of Compound (VII) designated Form S

Question: For `CC(C)(C)c1cc(C(C)(C)C)c(NC(=O)c2c[nH]c3ccccc3c2=O)cc1O` [Form L ({drug7j}), N-[2,4-bis(1,1-dimethylethyl)-5-hydroxyphenyl]-1,4-dihydro-4-oxoquinoline-3-carboxamide], which “XRPD pattern after attempted desolvation” value ([2]; ambient conditions for two weeks) is on record?
Answer: same Form L

Question: What about the “XRPD pattern after attempted desolvation” value ([2]; vacuum oven for 24 hours) of the same compound?
Answer: converted to x-ray amorphous

Question: For `N#Cc1ccc([C@H]2CCc3cncn32)c(F)c1` [HCl, 4-(R)-(6,7-dihydro-5H-pyrrolo[1,2-c]imidazol-5-yl)-3-fluoro-benzonitrile, reference compound], which Moisture gain (r.h. 25%) is on record?
Answer: 0.5%

Question: And the Moisture gain (r.h. 50%)?
Answer: 0.2%

Question: What about the Moisture gain (r.h. 75%) of the same compound?
Answer: 0.2%

Question: What about the Moisture gain (r.h. 85%) of the same compound?
Answer: 3.3%

Question: And the Moisture gain (r.h. 95%)?
Answer: 23.6%

Question: With `Cl` [Hydrochloric acid] as the compound, how does the Hygroscopicity [3] read?
Answer: Crystalline salt; crystals were hygroscopic at ambient temperatures and relative humidity conditions; crystalline salt samples included multiple hydration states and multiple crystalline forms. Solid state NMR indicated that prepared samples contained mixture of crystalline phases.

Question: And the Hygroscopicity ([3]; listed as hydrochloric acid salt)?
Answer: hygroscopic

Question: For Citric acid, which Hygroscopicity [3] is on record?
Answer: Crystalline salt; hygroscopic at ambient temperature and relative humidity conditions. PXRD patterns of slurry and dried material did not match.

Question: And the Hygroscopicity ([3]; listed as citric acid salt)?
Answer: hygroscopic

Question: Which results are given for Fumaric acid?
Answer: water content of samples ([3]; >25% relative humidity): ~6 wt. %; Hygroscopicity [3]: hygroscopic at ambient temperature and relative humidity conditions; Hygroscopicity ([3]; listed as fumaric acid salt): hygroscopic
